Assay results from patent US20120121736A1, “COMPOSITION FOR TREATING GASTRIC ULCER AND A PROCESS THEREOF” (priority 2010, published 2012).

How the values were obtained:
[1] = test system: histamine induced duodenal ulcer; experiment: Histamine induced duodenal ulcer model; type: in vivo, Guinea pig
Protocol: EXPERIMENT 3: EFFECT ON HISTAMINE INDUCED ULCER MODEL Method:
1. Animals were fasted for 24 hours with access to water.
2. The drug was given orally 1 hour prior to the histamine administration.
3. Histamine was administered in a dose of 0.25 mg/Kg, i. m. at 30 minutes interval for 7 times and it induced 100% duodenal ulceration in guinea pig (According to the method of Watt and Eagleton 1964).
4. The animals were sacrificed after half an hour of last injection under ether anesthesia.
5. The stomach along with duodenum were removed washed thoroughly and examined for the lesions. Ulcer index and protection index were calculated.

[2] = test system: Cold Restraint Ulcer Model (CRU); experiment: Cold Restraint Ulcer (CRU) model; type: in vivo, rats
Protocol: EXPERIMENT 1: EFFECT ON COLD RESTRAINT ULCERS (CRU) MODEL METHOD: Adult rats of either sex, weighing 150-175 grams are fasted for 24 hours in metallic cages with raised mesh bottoms to prevent coprophagia and were allowed free access to water. The test drugs were administered 45 minutes before immobilizing the animals. The rats were immobilized in the restraint cage and kept at 4° C. in BOD incubator for 2 hours (According to the method of Senay and Levine 1967). The animals were sacrificed immediately after the restraint period. The abdomen was cut opened; stomach was taken out and incised along the greater curvature to observe the gastric lesions with the help of Magnascope (5× magnification) The following arbitrary scoring system was used to grade the severity and intensity of the lesions: 1. Shedding of epithelium=10 2. Petechial and frank hemorrhages=20 3. One or two ulcers=30 4. More than two ulcers=40 5. Perforated ulcers=50 The presence of any of these lesions was considered as a positive ulcerogenic response which has been shown as percentage of rats showing gastric lesions. The severity of ulcers is expressed in terms of ulcer index, which is the mean score of gastric lesions of all the rats in a group. The term Ulcer Index is defined as: Ulcer Index (U. I.)=Us+Up×10−1 where Us=Mean severity of ulcer score and Up=Percentage of animals with Ulcer incidences. The percentage protection is calculated as follows: Percentage protection=(C−T/C)×100. where C=Number of animals showing ulcer response in control group and T=Number of animals showing ulcer response in test group.

[3] = test system: Ethanol Induced Ulcer Model; experiment: Alcohol (ethanol) induced gastric ulcer model; type: in vivo, rats; conditions: in respect to the protection of Omeprazole taken as 100%
Protocol: EXPERIMENT 4: EFFECT ON ALCOHOL INDUCED GASTRIC ULCERS IN RATS Method: 1. Adult rats of either sex were taken; weighing 150-175 grams were fasted for 24 hours with free access to water.
2. The test drugs were administered (p. o.) 45 minutes before alcohol administration.
3. 1 ml of chilled absolute alcohol was administered (p. o.) to the rats (According to the Wittetal).
4. Immediately after 1 hour, the animals were anesthetized, abdomen was cut opened stomach was taken out and incised along the greater curvature to observe the gastric lesions.
The ulcers are examined under the 5× magnification with the help of magnascope. Absolute ethanol lesions appears as blackish lesions grouped in patches of varying size, usually parallel to the major axis of the stomach.
5. The lengths of the lesions are measured and summated to give a total lesion score, then calculated and expressed in percentage.

[4] = test system: Aspirin induced ulcer model; experiment: Aspirin induced gastric ulcer model; type: in vivo, rats
Protocol: EXPERIMENT 2: EFFECT ON ASPIRIN INDUCED GASTRIC ULCER MODEL Method: Gastric ulceration was induced by aspirin according to the method of Djahanguiri (1969). Aspirin (150 mg/Kg.) was administered per orally as a suspension in gum-acacia and the animal was sacrificed 5 hr. after the aspirin treatment and the ulcer index with protection index were calculated.

[5] = test system: pyloric ligation induced Ulcer; experiment: Pyloric ligation induced ulcer model; type: in vivo, rats; conditions: in respect to the protection of Omeprazole taken as 100%
Protocol: EXPERIMENT 5: EFFECT ON PYLORIC LIGATION INDUCED ULCER MODEL Method: 1. Animals were fasted for 24 hours in the raised mesh bottom cages to prevent coprophagia and were allowed free access to water. 2. The control group of rats was feed with the vehicle and the experimental groups with their respective drugs 45 minutes prior to the ligation. 3. The animal was anesthetized, abdomen was cut opened under xiphoid process, and the pyloric portion of the stomach was slightly lifted and ligated avoiding any damage to the adjacent blood vessels (According to the method of Shay et al. 1945). 4. The animals were stitched and kept for 4 hours with free access to water. 5. After 4 hours the animals were sacrificed under ether anesthesia and the stomach was dissected out incised along the greater curvature. 6. The stomach was washed thoroughly and the ulcer index was scored as per in other ulcer models.

[6] = 10 mg/Kg, standard, protection taken as 100%

Compound: COc1ccc2[nH]c([S+]([O-])Cc3ncc(C)c(OC)c3C)nc2c1 (stereo not drawn) [Omeprazole]
- Volume of gastric fluid ([1]; Omeprazole 10 mg/Kg, p.o.): 1.0 ± 0.2 mL
- PERCENTAGE PROTECTION ([1]; in respect to the protection of Omeprazole taken as 100%): 100%
- Ulcer severity (type of lesions) Scores (No. of Guinea pig showing lesions/No. of Guinea pig tested) 20 ([1]; score 20, Omeprazole 10 mg/Kg, p.o.): 1/3
- PERCENTAGE PROTECTION [2, 6]: 100%
- Ulcer severity (type of lesions) Scores (No. of rats showing lesions/No. of rats tested) 10 ([2]; 10 = Shedding of epithelium, Omeprazole 10 mg/Kg, p.o.): 3/10
- Ulcer severity (type of lesions) Scores (No. of rats showing lesions/No. of rats tested) 20 ([2]; 20 = Petechial and frank hemorrhages, Omeprazole 10 mg/Kg, p.o.): 2/10
- PROTECTION (Percentage protection) [3]: 100.0%
- PERCENTAGE PROTECTION [4, 6]: 100%
- Ulcer severity (type of lesions) Scores (No. of rats showing lesions/No. of rats tested) 10 ([4]; 10 = Shedding of epithelium, Omeprazole 20 mg/Kg, Aspirin 150 mg/Kg p.o.): 2/6
- Ulcer severity (type of lesions) Scores (No. of rats showing lesions/No. of rats tested) 20 ([4]; 20 = Petechial and frank hemorrhages, Omeprazole 20 mg/Kg, Aspirin 150 mg/Kg p.o.): 1/6
- Percentage of ulcer incidence (No. of rats showing ulcer/total No. of rats used) ([4]; Omeprazole 20 mg/Kg): 50 (3/6) %
- PROTECTION (Percentage protection) [5]: 100%
